# In patent US12522631B2, “Compounds for use in the treatment of liver disease” (The Provost, Fellows, Foundation Scholars, And The Other …, priority 2019, dated 2026):
# Counter-ions that a name gives are not always drawn. Like-named read-outs stand apart in the source and are kept apart here.
# Assays:
# [1] = hamsters; cited from earlier work
# [2] = compared to ursodeoxycholic acid; cited from earlier work
# [3] = oral, rats; cited from earlier work
# [4] = tested on: ANIT-induced model of cholangitis; assay: Rat ANIT-induced model of cholangitis; assay type: in vivo, Sprague-Dawley rats; settings: oral, over a week, 20-30 mg/kg
# Description: This rat model of cholangitis was employed to assess the efficacy of lead compounds by monitoring aspartate aminotransferase (AST) serum levels and alanine aminotransferase (ALT) serum levels.
# Test compounds were to be assessed for their effect on liver damage using this chronic ANIT-induced model of cholangitis. UDCA was tested orally at high dose of 100 mg/kg in order to ensure an effect in the functional model that mimics its clinical effects in cholestasis patients. […] In this case ANIT was added to the chow at 0.1% inducing cholestasis and the compounds were tested by oral administration over the course of a week. Serum liver enzymes AST and ALT were measured as measures of liver damage and cholestasis. In comparison to the UDCA dose, the sulfonamide and triazole were dosed in the range 20-30 mg/kg.
# HUH-7 cells [5] = assay: alamarBlue cell viability assay, HUH-7 cells treated with tunicamycin
# From the text: Tunicamycin is known to induce Endoplasmic Reticulum (ER) stress, resulting ultimately in induction of apopotosis.
# HepG2 cells = assay: alamarBlue cell viability assay, HepG2 cells treated with tunicamycin; assay type: cell-based
# HUH-7 cells [6] = assay: MTT cell viability assay, HUH-7 cells treated with DCA; assay type: cell-based; settings: 100, 50, 10 μM; 24 h before DCA 200 μM, then co-treated 24 h (FIG. 14b)
# From the text: (§1) The alamarBlue™ assay uses resazurin-based reagents that function as cell health indicators by using the reducing power of living cells to quantitatively measure viability. Upon entering living cells, resazurin is reduced to resorufin, a compound that is red in color and highly fluorescent. The MTT assay is a colorimetric assay for assessing cell metabolic activity. NAD(P)H-dependent cellular oxidoreductase enzymes may, under defined conditions, reflect the number of viable cells present.
# HUH-7 cells [7] = assay: Cytoprotection model: DCA-induced cell death in HUH-7 cells
# Description: HUH-7 cells were then treated with UDCA and TUDCA in increasing concentration.
# HUH-7 cells in culture were then treated with a large library of UDCA 7-analogues to screen for compounds lacking intrinsic toxicity.
# HUH-7 cells [8] = assay: alamarBlue cell viability assay, HUH-7 cells treated with DCA; assay type: cell-based; settings: 24 h before DCA 200 μM, then co-treated 24 h (FIG. 14a); for cytoprotective effect (alamarBlue): 100, 50, 10 μM
# From the text: as §1, with “The difference between the observed cell viability in each of the assays is a consequence of the different properties measured in each assay. The alamarBlue™” for “The alamarBlue™”
# HUH-7 liver cancer cells = assay type: cell-based
# Description: A model of bile-acid induced liver injury was developed using HUH-7 liver cancer cells growing in culture. These were treated with increasing concentrations of DCA and GCDCA and the effect monitored using cell count on a high content platform (for example on an IN Cell analyser), MTT as a measure of metabolic activity and propidium iodide (PI). PI is normally cell impermeable so cellular staining is used as a way to detect cells with damaged walls. Appearance of PI positive cells soon after treatment with bile acid and PI indicated necrosis possibly through surfactant damage to the cell wall. A reduction in cell number or metabolic activity occurred without significant PI staining is consistent with an apoptotic form of cell death. DCA caused significant cell death in the range 200-500 μM associated with apoptosis because of the low levels of PI staining. […] (See FIG. 3(a) and FIG. 3(b)).
# [9] = tested on: hepatocytes in cell culture; settings: in vitro, cited from earlier work
# HUH-7 cells [10] = assay: Cytoprotection model: GCDCA-induced cell death in HUH-7 cells; assay type: cell-based; settings: 24 h pre-treatment, then co-treatment with GCDCA
# [11] = cited from earlier work
# [12] = 24 h before TM 5 μM, then co-treated 24 h (FIG. 15a)
compound,measurement,setting,value
C[C@H](CCC(=O)O)[C@H]1CCC2C3C(CC[C@@]21C)[C@@]1(C)CC[C@@H](O)CC1C[C@]3(C)O (stereo partly drawn),resistance to bacterial modification (metabolism),[1],more resistant than the naturally occurring analogues
C[C@H](CCC(=O)O)[C@H]1CCC2C3C(CC[C@@]21C)[C@@]1(C)CC[C@@H](O)CC1[C@@H](C)[C@@H]3O (stereo partly drawn) [6-α-methyl ursodeoxycholic acid],metabolic stability,[2],increased metabolic stability compared to ursodeoxycholic acid
CC(CCC(=O)O)C1CCC2C3C(O)CC4CC(OS(=O)(=O)O)CCC4(C)C3CCC12C (stereo not drawn) [C-3 sulfate],faecal lithocholic acid,[3],increased faecal lithocholic acid significantly
CC(CCC(=O)O)C1CCC2C3C(OS(=O)(=O)O)CC4CC(O)CCC4(C)C3CCC12C (stereo not drawn) [C-7 sulfate],faecal lithocholic acid/deoxycholic acid ratio,[3],reduced
"C[C@H](CCC(=O)O)[C@H]1CC[C@H]2[C@@H]3[C@@H](NS(C)(=O)=O)C[C@@H]4C[C@H](O)CC[C@]4(C)[C@H]3CC[C@]12C [Compound 21, 3α-hydroxy-7β-(methanesulfonamido)-5β-cholanoate]",AST serum levels,[4]; ANIT 0.1% in chow (FIG. 8a),normalised AST serum levels
same,ALT serum levels,[4]; ANIT 0.1% in chow (FIG. 8b),normalised ALT serum levels
same,cell viability on pre/co-treatment with tunicamycin,HUH-7 cells [5]; [12],significant increase in cell viability
same,concentration giving complete maintenance of cell viability (or effects of similar size),HUH-7 cells [5]; [12],10 µM
same,cytoprotective effect against tunicamycin,"HepG2 cells; 24 h before TM 5 μM, then co-treated 24 h (FIG. 15b)",cytoprotective effect of sulfonamide (21) was also observed
same,comparison with UDCA and TUDCA under the same conditions,HepG2 cells; lowest concentration tested of sulfonamide (21),outperformed all concentrations of UDCA and TUDCA
same,cytoprotective effect / increase in cell viability (MTT),HUH-7 cells [6],significant cytoprotective effect
same,concentration range of effective inhibition of DCA-induced cell death,HUH-7 cells [7]; FIG. 7,10 to 100 µM
same,cytoprotective effect (alamarBlue),HUH-7 cells [8],significant cytoprotective effect at all concentrations measured
same,concentration with almost complete cell viability/cytoprotection,HUH-7 cells [8],≥ 50 µM
"C[C@H](CCC(=O)O)[C@H]1CC[C@H]2[C@@H]3CC[C@@H]4C[C@H](O)CC[C@]4(C)[C@H]3C[C@H](O)[C@]12C [DCA, deoxycholic acid]",concentration range causing significant cell death,HUH-7 liver cancer cells; human,200 to 500 µM
"CC(CCC(=O)NCC(=O)O)C1CCC2C3C(O)CC4CC(O)CCC4(C)C3CCC12C (stereo not drawn) [GCDCA, glycochenodeoxycholic acid]",effect on cell viability,HUH-7 liver cancer cells,reduction in cell viability at higher concentration with greater evidence of necrosis
"C[C@H](CCC(=O)NCCS(=O)(=O)O)[C@H]1CC[C@H]2[C@@H]3[C@@H](O)C[C@@H]4C[C@H](O)CC[C@]4(C)[C@H]3CC[C@]12C [TUDCA, tauroursodeoxycholic acid]",protective effect in cell-based models,[9]; up to the mM concentration range,weakly but consistently protective
same,significant cell death on treatment in increasing concentration,HUH-7 liver cancer cells,did not
same,cytoprotective effect against GCDCA,HUH-7 cells [10],significant cytoprotective effect
same,concentration giving complete maintenance of cell viability (or effects of similar size),HUH-7 cells [5]; [12],100 µM
same,cytoprotective effect / increase in cell viability (MTT),HUH-7 cells [6],significantly lesser degree
same,protective effect when compound withdrawn before DCA,"HUH-7 cells [7]; 24 h pre-treatment (UDCA 100 μM, TUDCA 1 mM), withdrawn, then DCA (FIG. 4c)",protective effect of TUDCA was not observed
same,"cell viability 24 h after DCA, compared to DCA alone","HUH-7 cells [7]; 24 h pre-treatment, then DCA 200 μM added, TUDCA 1 mM, UDCA 100 μM (FIG. 4b)",significant increase in cell viability
same,"cell viability at 24 h post treatment, combination with DCA",HUH-7 cells [7]; combined with DCA without pre-treatment (FIG. 4a),did not lead to increased cell viability
same,concentration giving statistically significant increase in cell viability,HUH-7 cells [7]; pre-/co-treatment with DCA (FIG. 5a),≥ 1 mM
same,cytoprotective effect (alamarBlue),HUH-7 cells [8],less than with UDCA and the sulphonamide (21)
"C[C@H](CCC(=O)O)[C@H]1CC[C@H]2[C@@H]3[C@@H](O)C[C@@H]4C[C@H](O)CC[C@]4(C)[C@H]3CC[C@]12C [UDCA, ursodeoxycholic acid]",concentration at which it can contribute to cell death,[9],> 200 µM
same,faecal lithocholic acid,[3],increased faecal lithocholic acid significantly
same,significant cell death on treatment in increasing concentration,HUH-7 liver cancer cells; human,300 μM-1 mM
same,concentration giving complete maintenance of cell viability (or effects of similar size),HUH-7 cells [5]; [12],100 µM
same,fraction absorbed,[11]; oral administration,30-60%
same,share of absorption occurring in the small intestine,[11]; via passive diffusion,around 80%
tunicamycin,decrease in cell viability (alamarBlue),"HUH-7 cells [5]; tunicamycin alone, 5 μM, HUH7",approximately 30%
